# In ChEMBL document CHEMBL1201862, “PubChem BioAssay data set” (2004):
# The source made the active and inactive calls.
# Legend:
# Cytochrome P450 3A4 = Cytochrome P450 3A4 (Homo sapiens, UniProt P08684);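 note: CYP3A4 tested as one member of a cytochrome P450 panel screen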
# Cytochrome P450 2C19 = Cytochrome P450 2C19 (Homo sapiens, UniProt P33261); experiment: Cytochrome panel assay with activity outcomes. Panel member name: p450-cyp2c19 Compounds with AC50 equal or less than 10 uM are considered active; format: functional; conditions: read-out: AC50
# Cytochrome P450 2C9 = Cytochrome P450 2C9 (Homo sapiens, UniProt P11712)
# [1] = target: T1, High affinity choline transporter 1 (Homo sapiens, UniProt Q9GZV3); experiment: CHT inhibitors, dose response, cell-based, 5-point CRC, membrane potential dye (AID 504840); format: functional
# T1 sequence (Q9GZV3 whole entry): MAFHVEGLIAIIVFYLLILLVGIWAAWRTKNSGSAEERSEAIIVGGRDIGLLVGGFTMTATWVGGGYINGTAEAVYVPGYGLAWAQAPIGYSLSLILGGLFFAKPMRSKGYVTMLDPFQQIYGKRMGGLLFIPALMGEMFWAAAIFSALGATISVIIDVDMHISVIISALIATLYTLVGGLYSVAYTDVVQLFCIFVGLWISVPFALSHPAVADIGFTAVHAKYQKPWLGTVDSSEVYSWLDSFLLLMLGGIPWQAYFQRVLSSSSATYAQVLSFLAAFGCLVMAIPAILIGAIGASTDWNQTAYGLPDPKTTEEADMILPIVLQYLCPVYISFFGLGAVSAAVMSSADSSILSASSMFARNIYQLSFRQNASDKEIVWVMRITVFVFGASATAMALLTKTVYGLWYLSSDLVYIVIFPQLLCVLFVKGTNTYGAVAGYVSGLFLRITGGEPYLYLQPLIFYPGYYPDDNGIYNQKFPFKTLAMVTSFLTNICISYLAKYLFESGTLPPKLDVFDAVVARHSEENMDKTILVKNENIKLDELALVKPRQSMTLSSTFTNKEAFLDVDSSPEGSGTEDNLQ
# Cytochrome P450 1A2 = target: T2, Cytochrome P450 1A2 (Homo sapiens, UniProt P05177);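 note: PubChem cytochrome P450 panel assay, CYP1A2 panel member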
# T2 sequence (P05177 whole entry): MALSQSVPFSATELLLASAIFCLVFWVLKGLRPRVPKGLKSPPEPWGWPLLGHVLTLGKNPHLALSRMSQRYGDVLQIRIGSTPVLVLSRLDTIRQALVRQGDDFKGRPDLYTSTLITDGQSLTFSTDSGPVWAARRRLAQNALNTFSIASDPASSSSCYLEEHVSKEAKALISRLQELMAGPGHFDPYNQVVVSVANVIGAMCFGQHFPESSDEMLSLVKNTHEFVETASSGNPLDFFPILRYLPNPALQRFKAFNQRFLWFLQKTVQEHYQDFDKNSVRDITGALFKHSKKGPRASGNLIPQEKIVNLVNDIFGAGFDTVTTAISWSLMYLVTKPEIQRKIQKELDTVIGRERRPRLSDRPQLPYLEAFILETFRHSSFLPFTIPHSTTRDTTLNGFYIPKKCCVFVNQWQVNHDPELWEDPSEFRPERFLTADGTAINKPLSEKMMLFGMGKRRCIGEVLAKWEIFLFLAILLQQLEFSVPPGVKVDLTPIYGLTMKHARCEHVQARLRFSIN
# [2] = target: T3, Ubiquitin-conjugating enzyme E2 N (Homo sapiens, UniProt P61088); format: functional
# T3 sequence (P61088 whole entry): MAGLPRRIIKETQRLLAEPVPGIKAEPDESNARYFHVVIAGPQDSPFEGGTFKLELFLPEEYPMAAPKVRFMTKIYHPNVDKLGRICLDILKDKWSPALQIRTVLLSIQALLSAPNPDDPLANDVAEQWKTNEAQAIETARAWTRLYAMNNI
# INS1 = experiment: beta cell apoptosis inhibitors, cytokine rescue, dose response, luminescence, retest (AID 449756); format: functional, cell-based; conditions: Rattus norvegicus;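 note: cell death triggered by IL-1 beta plus TNF-alpha plus IFN-gamma mixture; protective hits raise ATP signal compared with cytokine alone wells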
# [3] = target: Heat shock protein HSP 90-alpha (Homo sapiens, UniProt P07900); format: functional, organism-based
# [4] = target: T4, Apoptotic protease-activating factor 1 (Homo sapiens, UniProt O14727); format: functional
# T4 sequence (O14727 whole entry): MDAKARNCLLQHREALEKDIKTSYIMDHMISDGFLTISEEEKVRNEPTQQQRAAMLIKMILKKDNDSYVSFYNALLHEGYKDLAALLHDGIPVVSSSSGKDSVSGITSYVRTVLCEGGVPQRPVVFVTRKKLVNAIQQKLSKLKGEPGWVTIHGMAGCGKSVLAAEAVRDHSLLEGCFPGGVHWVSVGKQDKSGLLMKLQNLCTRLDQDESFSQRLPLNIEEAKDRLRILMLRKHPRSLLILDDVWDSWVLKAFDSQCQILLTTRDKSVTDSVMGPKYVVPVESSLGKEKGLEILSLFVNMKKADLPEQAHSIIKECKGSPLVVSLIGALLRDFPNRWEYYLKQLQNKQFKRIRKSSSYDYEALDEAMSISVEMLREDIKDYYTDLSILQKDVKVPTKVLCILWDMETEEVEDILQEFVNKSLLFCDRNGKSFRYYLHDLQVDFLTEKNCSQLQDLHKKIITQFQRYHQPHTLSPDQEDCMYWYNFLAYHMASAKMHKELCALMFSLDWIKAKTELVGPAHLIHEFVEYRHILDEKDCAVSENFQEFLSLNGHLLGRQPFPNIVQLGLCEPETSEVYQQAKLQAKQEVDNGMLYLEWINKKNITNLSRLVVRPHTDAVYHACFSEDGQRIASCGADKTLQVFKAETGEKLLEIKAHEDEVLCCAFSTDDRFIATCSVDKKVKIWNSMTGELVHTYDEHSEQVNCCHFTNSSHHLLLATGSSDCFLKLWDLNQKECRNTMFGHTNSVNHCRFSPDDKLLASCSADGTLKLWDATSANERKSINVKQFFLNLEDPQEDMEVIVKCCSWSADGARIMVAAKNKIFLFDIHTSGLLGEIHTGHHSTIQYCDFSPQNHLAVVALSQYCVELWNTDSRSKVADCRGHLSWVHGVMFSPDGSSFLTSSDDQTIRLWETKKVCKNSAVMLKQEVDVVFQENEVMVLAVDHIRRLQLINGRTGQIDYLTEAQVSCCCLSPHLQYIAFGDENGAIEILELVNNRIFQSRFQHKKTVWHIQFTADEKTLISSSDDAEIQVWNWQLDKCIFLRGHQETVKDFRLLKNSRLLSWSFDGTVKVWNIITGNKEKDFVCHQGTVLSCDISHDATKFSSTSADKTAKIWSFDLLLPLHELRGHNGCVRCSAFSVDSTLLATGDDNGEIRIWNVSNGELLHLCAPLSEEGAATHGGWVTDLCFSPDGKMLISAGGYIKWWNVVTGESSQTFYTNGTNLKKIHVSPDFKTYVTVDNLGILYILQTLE
# [5] = target: T3, Ubiquitin-conjugating enzyme E2 N; format: functional; remark: listed apart in the source
# Bcl-2-related protein A1 = target: T5, Bcl-2-related protein A1 (Mus musculus, UniProt Q07440); format: functional;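 note: confirmatory dose–response counterscreen on Bfl-1, used to check hits from a UBC13 polyubiquitin inhibitor campaign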
# T5 sequence (Q07440 whole entry): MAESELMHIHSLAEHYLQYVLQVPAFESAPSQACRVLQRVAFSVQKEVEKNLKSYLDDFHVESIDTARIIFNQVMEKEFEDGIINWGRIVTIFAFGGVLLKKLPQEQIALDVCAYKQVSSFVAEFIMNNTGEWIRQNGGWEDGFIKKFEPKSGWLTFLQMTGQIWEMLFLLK
# [6] = target: T6, DNA repair protein RAD52 homolog (Homo sapiens, UniProt P43351); format: functional, biochemical
# T6 sequence (P43351 whole entry): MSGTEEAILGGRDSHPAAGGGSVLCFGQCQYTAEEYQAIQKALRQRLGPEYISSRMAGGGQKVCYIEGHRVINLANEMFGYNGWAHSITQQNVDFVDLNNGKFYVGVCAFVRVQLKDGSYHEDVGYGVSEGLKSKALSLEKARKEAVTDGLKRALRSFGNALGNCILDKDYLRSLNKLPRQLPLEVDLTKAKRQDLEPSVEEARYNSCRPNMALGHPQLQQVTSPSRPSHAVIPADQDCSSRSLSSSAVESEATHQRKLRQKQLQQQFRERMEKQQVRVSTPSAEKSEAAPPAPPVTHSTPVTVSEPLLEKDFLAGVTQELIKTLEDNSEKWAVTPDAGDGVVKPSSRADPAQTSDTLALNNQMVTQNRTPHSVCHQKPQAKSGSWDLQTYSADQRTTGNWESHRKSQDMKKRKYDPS
# [7] = target: T7, Endoribonuclease toxin MazF (Escherichia coli K-12, UniProt P0AE70); experiment: MazF toxin RNase activators, dose response, biochemical, fluorescence, single-stranded RNA substrate, uHTS hits (AID 588481); format: functional
# T7 sequence (P0AE70 whole entry): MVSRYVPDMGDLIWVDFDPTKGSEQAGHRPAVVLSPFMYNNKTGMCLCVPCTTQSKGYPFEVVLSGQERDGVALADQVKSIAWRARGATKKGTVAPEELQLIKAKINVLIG
# [8] = target: T7, Endoribonuclease toxin MazF; experiment: fluorescent RNA oligo signal without MazF, dose response, counter-screen for MazEF activator project, biochemical, fluorescence, single-stranded RNase substrate (AID 588502); format: functional
# [9] = cytotoxicity toward NIH3T3 fibroblasts, dose response, counter-screen, cell-based, ATP luminescence, mouse fibroblasts (AID 2010); format: functional;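 note: cells exposed to compound for about 90 hours before reading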
# [10] = inhibitors of intracellular T. cruzi replication, confirmation, NIH3T3 host cells, beta-gal luminescence (AID 2044); format: functional, cell-based;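 note: intracellular parasites grown in NIH/3T3 mouse fibroblasts as host cells; luminescent beta-galactosidase reporter signal from transgenic T. cruzi replicating inside host cells; inhibitors lower the luminescence signal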
# [11] = target: T8, Microphthalmia-associated transcription factor (Homo sapiens, UniProt O75030); experiment: TRPM1 promoter luciferase signal decrease, dose response, MITF inhibitor project, cell-based, SK-MEL-5, cherry-picked, set 3 (AID 493073); format: functional
# T8 sequence (O75030 whole entry): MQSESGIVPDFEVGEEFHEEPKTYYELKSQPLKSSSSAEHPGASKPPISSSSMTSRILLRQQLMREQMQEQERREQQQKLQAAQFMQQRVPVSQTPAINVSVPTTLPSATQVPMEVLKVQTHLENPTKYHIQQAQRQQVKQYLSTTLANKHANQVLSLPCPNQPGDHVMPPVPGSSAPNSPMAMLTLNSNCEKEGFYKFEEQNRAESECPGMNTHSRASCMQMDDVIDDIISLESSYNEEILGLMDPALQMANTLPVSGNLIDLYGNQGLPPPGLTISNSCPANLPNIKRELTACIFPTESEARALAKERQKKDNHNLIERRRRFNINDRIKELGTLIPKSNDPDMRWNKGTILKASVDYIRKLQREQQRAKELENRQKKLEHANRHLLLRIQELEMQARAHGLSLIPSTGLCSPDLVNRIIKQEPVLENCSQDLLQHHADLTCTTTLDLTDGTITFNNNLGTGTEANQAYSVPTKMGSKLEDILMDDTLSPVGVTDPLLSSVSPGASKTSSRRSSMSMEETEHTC
# [12] = NIH-3T3 fibroblast cytotoxicity, dose response, cytotoxicity control, cell-based, fluorescence, Alamar Blue, secondary assay (AID 2327); format: functional;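 note: NIH-3T3 mouse fibroblasts cultured with fluconazole at 8 µg/mL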
# [13] = C. albicans growth with fluconazole, confirmation, fluorescence, retest (AID 2467); format: functional, cell-based
# Sequence of Cytochrome P450 3A4 (P08684 whole entry): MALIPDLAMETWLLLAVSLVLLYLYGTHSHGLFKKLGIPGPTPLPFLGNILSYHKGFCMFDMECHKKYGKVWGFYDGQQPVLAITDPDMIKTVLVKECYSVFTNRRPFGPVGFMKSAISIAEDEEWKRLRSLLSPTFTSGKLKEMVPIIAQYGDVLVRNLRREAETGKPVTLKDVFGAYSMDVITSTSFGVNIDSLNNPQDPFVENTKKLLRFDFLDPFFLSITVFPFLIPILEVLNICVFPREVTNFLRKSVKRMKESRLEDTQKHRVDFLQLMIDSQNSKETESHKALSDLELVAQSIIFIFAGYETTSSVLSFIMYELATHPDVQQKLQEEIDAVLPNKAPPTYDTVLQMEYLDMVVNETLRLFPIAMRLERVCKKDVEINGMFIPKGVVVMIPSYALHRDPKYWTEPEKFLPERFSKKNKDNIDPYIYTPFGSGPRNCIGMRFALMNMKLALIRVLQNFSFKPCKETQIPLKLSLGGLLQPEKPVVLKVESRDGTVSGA
# Sequence of Cytochrome P450 2C9 (P11712 whole entry): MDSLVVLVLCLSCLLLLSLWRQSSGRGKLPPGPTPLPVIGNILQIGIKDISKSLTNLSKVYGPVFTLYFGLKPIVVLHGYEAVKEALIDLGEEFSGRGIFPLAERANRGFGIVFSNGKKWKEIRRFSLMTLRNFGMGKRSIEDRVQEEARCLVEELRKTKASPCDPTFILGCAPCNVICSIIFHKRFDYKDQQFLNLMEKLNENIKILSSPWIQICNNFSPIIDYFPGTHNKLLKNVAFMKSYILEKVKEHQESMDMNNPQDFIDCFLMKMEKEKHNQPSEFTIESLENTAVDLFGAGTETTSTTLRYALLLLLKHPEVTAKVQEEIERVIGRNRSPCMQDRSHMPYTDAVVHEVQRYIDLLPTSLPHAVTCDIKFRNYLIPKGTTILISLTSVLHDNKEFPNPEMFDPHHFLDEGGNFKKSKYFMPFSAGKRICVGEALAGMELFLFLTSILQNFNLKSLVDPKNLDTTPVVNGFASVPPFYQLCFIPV
# Sequence of Cytochrome P450 2C19 (P33261 whole entry): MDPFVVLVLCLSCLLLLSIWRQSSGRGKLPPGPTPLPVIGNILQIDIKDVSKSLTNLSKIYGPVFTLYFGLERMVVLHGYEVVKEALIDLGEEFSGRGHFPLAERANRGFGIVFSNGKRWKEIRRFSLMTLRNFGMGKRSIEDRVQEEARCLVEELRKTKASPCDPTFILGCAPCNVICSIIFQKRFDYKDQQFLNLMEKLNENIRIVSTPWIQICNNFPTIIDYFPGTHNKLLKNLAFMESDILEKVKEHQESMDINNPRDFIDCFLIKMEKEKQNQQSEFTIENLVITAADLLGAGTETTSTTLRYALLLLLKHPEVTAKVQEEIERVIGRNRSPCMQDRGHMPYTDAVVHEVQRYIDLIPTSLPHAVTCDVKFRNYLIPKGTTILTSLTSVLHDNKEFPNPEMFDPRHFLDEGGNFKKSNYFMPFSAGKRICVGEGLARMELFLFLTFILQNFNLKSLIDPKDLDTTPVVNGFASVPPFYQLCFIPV
smiles,measurement,setting,value
O=C(Oc1ccccc1)N1CCC2(CC1)CN(C(c1ccccc1)c1ccccc1)C2,AC50,Cytochrome P450 3A4,inconclusive
same,AC50,Cytochrome P450 2C19,31.6 µM (inconclusive)
same,AC50,Cytochrome P450 2C9,39.8 µM (inconclusive)
Cc1ccc(C(=O)N2CCN(c3ccc(C(F)(F)F)cn3)CC2)cc1,AC50,Cytochrome P450 3A4,inconclusive
Cc1noc(NS(=O)(=O)c2ccc(NC(=O)COc3ccc(Cl)cc3Cl)cc2)c1C,IC50,[1],1.08 µM (active)
CCCCOC(=O)c1ccc(NC(=S)NC(=O)c2c(Cl)cnn2C)cc1,AC50,Cytochrome P450 1A2,39.8 µM (inconclusive)
same,AC50,Cytochrome P450 3A4,inconclusive
same,AC50,Cytochrome P450 2C9,39.8 µM (inconclusive)
CCc1nnc(NS(=O)(=O)c2ccc(NC(=O)c3cc(Cl)ccc3Cl)cc2)s1,IC50,[1],12.3 µM (active)
Cc1cc(C(C)(C)CC(C)(C)C)ccc1OCCOCC[N+](C)(C)Cc1ccccc1,IC50,[2],9.49 µM (active)
same,AC50,INS1,2.41 µM (active)
same,AC50,[3],7.56 µM (active)
same,IC50,[4],21.3 µM (active)
same,IC50,[5],8.92 µM (active)
same,IC50,Bcl-2-related protein A1,14.9 µM (active)
same,AC50,[6],20.4 µM (active)
C/C(=N\OCC(=O)Nc1ccccc1C(=O)O)c1cccs1,IC50,[1],11 µM (active)
CC(=O)Nc1ccc(C(=O)CSc2cc(C)c3cccc(C)c3n2)cc1,EC50,[7],> 99 µM (inactive)
same,EC50,[8],> 99 µM (inactive)
O=C(C1=NN[C@@H]2C(=O)N(c3cccc(C(F)(F)F)c3)C(=O)[C@H]12)c1ccc2ccccc2n1,EC50,[7],47.9 µM (inactive)
same,EC50,[8],> 99 µM (inactive)
CN(C(=O)COC(=O)c1ccc([N+](=O)[O-])cc1N)c1ccccc1,EC50,[7],> 99 µM (inactive)
same,EC50,[8],> 99 µM (inactive)
CCOc1ccccc1C(=O)NC(C)c1ccc2c(c1)OCO2 (centres undefined),IC50,[1],19.1 µM (active)
COc1ccc(-c2cc(-c3ccccc3)[n+](C)c(-c3ccccc3)c2)cc1.[O-][Cl+3]([O-])([O-])[O-],AC50,INS1,2.85 µM (active)
same,EC50,[9],> 60 µM (not active)
same,EC50,[10],0.131 µM (active)
same,AC50,[11],3.2 µM (active)
same,EC50,[12],> 160 µM (inactive)
same,EC50,[13],0.57 µM (active)
Cc1cc(C(=O)N/N=C/c2ccc(-c3ccc([N+](=O)[O-])cc3C)o2)[nH]n1,EC50,[7],> 99 µM (inactive)
same,EC50,[8],> 99 µM (inactive)
CNc1cc(-c2ccccc2C(F)(F)F)ncn1,AC50,Cytochrome P450 3A4,inconclusive
C=CCn1c(COc2cccc(C)c2)nnc1SC(C)C(=O)NC1CC1 (centres undefined),IC50,[4],> 100 µM (inactive)
